From US5468875A, “1-azabicycloheptane derivatives” (American Home Products Corporation, priority 1994, dated 1995)
Read-outs that look alike come from different tables or passages of the source.

Assays:
m1 receptor = m1 receptor (Homo sapiens, UniProt P11229); assay: biochemical; details: ml 3H QNB Binding in CHO cells Ki, 0.23 nM [3H]QNB, 37° C., one hour
[1] = target: T1, M1 acetylcholine receptors (Homo sapiens, UniProt P11229); assay: stimulation of phosphoinositide (PI) hydrolysis in CHO cells transfected with M1 receptor cDNA; type: cell-based; details: for Emax: CHO, 1 h; for EC50: m1 receptors in CHO cells, read-out: % PI Hydrolysis ml receptors in CHO cells ED50; for functional m1 muscarinic agonism: exo versus endo, in words
T1 sequence (P11229 1-460): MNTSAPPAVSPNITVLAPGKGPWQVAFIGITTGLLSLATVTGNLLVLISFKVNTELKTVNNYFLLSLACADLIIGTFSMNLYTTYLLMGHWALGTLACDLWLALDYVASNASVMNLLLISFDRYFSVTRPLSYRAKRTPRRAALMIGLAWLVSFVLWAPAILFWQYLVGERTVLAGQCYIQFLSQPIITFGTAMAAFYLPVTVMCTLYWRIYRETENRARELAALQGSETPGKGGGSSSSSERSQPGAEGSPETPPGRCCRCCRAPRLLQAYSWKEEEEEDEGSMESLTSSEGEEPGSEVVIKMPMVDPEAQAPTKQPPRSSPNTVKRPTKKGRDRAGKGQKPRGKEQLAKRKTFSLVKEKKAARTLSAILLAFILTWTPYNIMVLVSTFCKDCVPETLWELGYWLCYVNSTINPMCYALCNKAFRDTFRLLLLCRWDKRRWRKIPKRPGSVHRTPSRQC

muscarinic = details: cited from earlier work
[2] = system: scopolamine disrupted rat performance; assay: eight arm radial maze test, scopolamine disrupted performance; type: in vivo, Sprague-Dawley male rats; details: ip, rats, test compound i.p., scopolamine HBr 0.3 mg/kg, s.c., read-out: minimum effective dose (MED), reversal of scopolamine disrupted rat performance
Experimental: The compound of Example 3 was also tested in the eight arm radial maze test procedure in which Sprague-Dawley male rats at 85% of their free feeding weight are trained to obtain two food pellets from food cups placed at the ends of four of the eight arms radiating from a circular central area of the maze, in a five minute period. After training to a level of error (rerum to a previously entered arm is error) equal to or less than 2, the rats performance is disrupted with scopolamine HBr (0.3 mg/kg, s.c.) and test compound dosage (i.p.). The number of errors are then determined and compared with control receiving scopolamine alone.

[3] = system: patients with mild to moderate Alzheimer's Disease; details: cited from earlier work; for improvement in memory: patients with mild to moderate Alzheimer's Disease
[4] = cited from earlier work
[5] = system: scopolamine treated animals; assay: reversal of scopolamine-induced hyperactivity, swim tank test; type: in vivo, Male CFW mice; details: Mus musculus, ip, 5 min, mice, scopolamine.HBr 0.3 mg/kg i.p., swim distance, read-out: minimum effective dose (MED), reversal of hyperactivity of scopolamine treated animals
Experimental: The compound of Example 3, representative of the other compounds of this invention, was also tested in accordance with the procedure of Symons et al, Soc. Neuroscience Abstracts 12:2, 897 (1986) in which Male CFW mice, 25 to 35 grams in weight are given the test compound in suitable vehicle plus 0.3 mg/kg scopolamine.HBr in suitable vehicle, i.p.(3 groups of 12 animals each) or vehicle alone (1 group of 12 animals ) or vehicle plus scopolamine.HBr (1 group of 12 animals). The mice are placed in a swim tank, individually, containing 10 cm H2 O for a period of 5 minutes and the distance each animal swims is recorded.

m1 receptors = details: cited from earlier work
[6] = read-out: % PI Hydrolysis ml receptors in CHO cells 30x Ki (μM) carb=100%
[7] = read-out: % PI Hydrolysis ml receptors in CHO cells maximum % carbachol=100%

## O=C(NC1CC1)O[C@H]1CN2CC[C@H]1C2 (single isomer, unassigned) [Example 12]
m1 receptor
  Ki: 20.5 µM

## CNC(=S)O[C@H]1CN2CC[C@H]1C2 (relative stereo) [Example 4, (exo)-Methylthiocarbamic acid 1-aza-bicyclo[2.2.1]hept-3-yl ester]
m1 receptor
  Ki: 3.72 µM
[1]; [6]
  Emax: 21.8%

## CCNC(=O)O[C@H]1CN2CC[C@H]1C2 (single isomer, unassigned) [Example 7, (+)-(exo)-Ethylcarbamic acid 1-aza-bicyclo[2.2.1]hept-3-yl ester]
m1 receptor
  Ki: 14.3 µM

## CNC(=O)OC1CC2CCCN(C2)C1 (stereo not drawn) [exo-1-azabicyclo[3.3.1]non-3-yl-N-methylcarbamate]
muscarinic
  muscarinic activity: having muscarinic activity

## CNC(=O)O[C@H]1CN2CC[C@H]1C2 (single isomer, unassigned) [Example 2, (+)-(exo)-Methylcarbamic acid 1-aza-bicyclo[2.2.1]hept-3-yl ester]
m1 receptor
  Ki: 41.8 µM
[2]
  minimal effective dose: 1 mg/kg

## O=C(NC1CC1)O[C@H]1CN2CC[C@H]1C2 (relative stereo) [Example 11, (exo)-Cyclopropylcarbamic acid 1-aza-bicyclo[2.2.1]hept-3-yl ester]
m1 receptor
  Ki: 1.81 µM
[1]; [6]
  Emax: 10.1%

## CN(C)C(=O)OC1CC2CCCN(C2)C1 (stereo not drawn) [exo-1-azabicyclo[3.3.1]non-3-yl-N,N-dimethylcarbamate]
muscarinic
  muscarinic activity: having muscarinic activity

## CNC(=S)O[C@H]1CN2CC[C@H]1C2 (single isomer, unassigned) [Example 6, (-)-(exo)-Methylthiocarbamic acid 1-aza-bicyclo[2.2.1]hept-3-yl ester]
m1 receptor
  Ki: 14.5 µM
[1]; cho cells, 60 min
  % PI Hydrolysis ml receptors in CHO cells maximum % carbachol=100%: 69.7%
[1]
  EC50: 6.3 µM

## CNC(=O)OC1CN2CCCC1C2 (stereo not drawn) [exo-1-azabicyclo[3.2.1oct-6-yl-N-methylcarbamate]
muscarinic
  muscarinic activity: having muscarinic activity

## CNC(=S)O[C@H]1CN2CC[C@H]1C2 (single isomer, unassigned) [Example 5, (+)-(exo)-Methylthiocarbamic acid 1-aza-bicyclo[2.2.1]hept-3-yl ester]
m1 receptor
  Ki: 6.93 µM
[1]; [7]
  Emax: 51.5%
[1]
  EC50: 2.9 µM

## CNC(=O)O[C@H]1CN2CC[C@@H]1C2 (relative stereo) [endo azacycloheptane analog]
[1]
  functional m1 muscarinic agonism: not

## COC(=O)C1=CCCN(C)C1 [Arecoline, arecoline]
[3]
  improvement in memory: demonstrated memory improvement in patients with mild to moderate Alzheimer's Disease
[4]
  half-life: short half-life

## CNC(=O)O[C@H]1CN2CC[C@H]1C2 (relative stereo) [Example 1, (exo)-Methylcarbamic acid 1-aza-bicyclo[2.2.1]hept-3-yl ester]
m1 receptor
  Ki: 29.3 µM
[1]; [6]
  Emax: 61.9%
[1]; [7]
  Emax: 54.9%
[1]
  functional m1 muscarinic agonism: enhanced muscarinic agonism
  EC50: 6.9 µM

## CNC(=O)O[C@H]1CN2CC[C@H]1C2 (single isomer, unassigned) [Example 3, (-)-(exo)-Methylcarbamic acid 1-aza-bicyclo[2.2.1]hept-3-yl ester]
m1 receptor
  Ki: 26.6 µM
[5]
  minimal effective dose: 30 mg/kg
[1]; [6]
  Emax: 71.9%
[1]; [7]
  Emax: 68.7%
[1]
  EC50: 9.8 µM

## C[C@@H]1O[C@H](C[N+](C)(C)C)C[C@H]1O [muscarine]
m1 receptors
  activation of m1 receptors: able to fully activate m1 receptors

## C#CCNC(=O)O[C@H]1CN2CC[C@H]1C2 (single isomer, unassigned) [Example 13, (-)-(exo)-Propargylcarbamic acid 1-aza-bicyclo[2.2.1]hept-3-yl ester]
m1 receptor
  Ki: 14.5 µM
[1]; [6]
  Emax: 39.4%

## CCNC(=O)O[C@H]1CN2CC[C@H]1C2 (single isomer, unassigned) [Example 8, (-)-(exo)-Ethylcarbamic acid 1-aza-bicyclo[2.2.1]hept-3-yl ester]
m1 receptor
  Ki: 21.5 µM
[1]; [6]
  Emax: 58.8%

## Nc1c2c(nc3ccccc13)CCCC2 [tactine]
[3]; higher doses
  adverse side effects: adverse side effects especially at the higher doses where it is most effective
[3]
  improvement in memory: improvement in memory can be shown in patients with mild to moderate Alzheimer's Disease

## O=C(NCC(F)(F)F)O[C@H]1CN2CC[C@H]1C2 (relative stereo) [Example 9, (exo)-(2.2.2-Trifluoroethyl)carbamic acid 1-aza-bicyclo[2.2.1]hept-3-yl ester]
m1 receptor
  Ki: 14.5 µM

## O=C(NCC(F)(F)F)O[C@H]1CN2CC[C@H]1C2 (single isomer, unassigned) [Example 10, (-)-(exo)-(2.2.2-Trifluoroethyl)carbamic acid 1-aza-bicyclo[2.2.1]hept-3-ylester]
m1 receptor
  Ki: 17.6 µM
